How the values were obtained:
[1] = tested on: human hair follicle dermal papilla cells (HHFDPC); assay: Proliferation of dermal papilla cells (MTT, absorbance at 540 nm); type: cell-based; details: peptide 500 nM, 5 μM, and 50 μM, 72 hours, compared to the untreated control group, FIG. 1
Procedure: While culturing human hair follicle dermal dermal papilla cells (HHFDPC), the absorbance was measured after treatment with the peptide of the present invention to confirm whether there was an effect of promoting the proliferation of the HHFDPC dermal papilla cells.
Specifically, HHFDPC (Sciencell, USA) was seeded at 4×10^3 cells/well in a 96-well culture plate, cultured in MSC complete medium (mesenchymal stem cell complete media, Sciencell, USA) for 24 hours, and then the medium was replaced with serum free MSC complete medium and cultured for another 24 hours. Then, the HHFDPC was treated with the peptide of SEQ ID NO: 1 prepared in the Preparation Example at concentrations of 500 nM, 5 μM, and 50 μM, respectively, and cultured at 37° C. for 72 hours. As a positive control, minoxidil was treated at a concentration of 1 μM, and as a negative control, HHFDPC without any treatment was used. Then, 10 ? of 5 mg/ml MTT solution was added and cultured in a 37° C. CO2 incubator for 4 hours to stain the cells. After removing the medium, the cells were treated with 100 μl of DMSO and shaken for 10 minutes, and the number of HHFDPC cells was confirmed by measuring absorbance at a wavelength of 540 nm using a spectrophotometer.

p-AKT = assay: Western blotting of phosphorylated AKT in HHFDPC; type: cell-based, human; details: peptide 500 nM, 5 μM, and 50 μM, 24 hours, vs control group not treated, FIG. 2
Procedure: (§1) First, phosphorylated forms of AKT and ERK, which act as signaling molecules related to the proliferation of HHFDPC, were confirmed through Western blotting. Specifically, HHFDPC as in [Experiment Example 1-1] above was seeded at 4×10^5 cells/well in a 6-well culture plate, cultured in MSC complete medium (mesenchymal stem cell complete media) for 24 hours, and then the medium was replaced with serum free MSC complete medium and cultured for another 24 hours. Then, the HHFDPC was treated with the peptide of SEQ ID NO: 1 prepared in the Preparation Example at concentrations of 500 nM, 5 μM, and 50 μM, respectively, and cultured at 37° C. for 24 hours. As a positive control, minoxidil was treated at a concentration of 1 μM, and as a negative control, HHFDPC without any treatment was used. Then, Western blotting was performed to detect phosphorylated AKT and phosphorylated ERK. After washing with PBS, the cells were treated with 100 ? of lysis buffer to destroy cells, thereby obtaining cell lysate. After electrophoresis using a 10% SDS-PAGE gel, it was transferred to a PVDF membrane and blocked using 5% skim milk at room temperature for 30 minutes. […] After washing again with 0.1% PBS-T (0.1% Tween-20 in PBS) three times for 15 minutes each, p-AKT and p-ERK were detected by treatment with ECL solution (GE Healthcare, USA).

p-ERK = assay: Western blotting of phosphorylated ERK in HHFDPC; type: cell-based, human; details: peptide 500 nM, 5 μM, and 50 μM, 24 hours, vs control group not treated, FIG. 2
Procedure: as §1

β-catenin = assay: Western blotting of β-catenin moved to the nucleus in HHFDPC; type: cell-based, human; details: HHFDPC nuclear proteins, peptide 500 nM, 5 µM, and 50 μM, 24 hours, vs control group not treated, FIG. 3
Procedure: In addition, in addition to p-AKT and p-ERK, in order to confirm the activation of β-catenin, which is known to affect cell proliferation and differentiation, whether β-catenin moved into the nucleus was confirmed through Western blotting. Specifically, the HHFDPC as in [Experiment Example 1-1] was seeded in a 6-well culture plate at an amount of 4×10^5 cells/well, cultured in MSC complete medium (mesenchymal stem cell complete media) for 24 hours. Next, the medium was replaced with serum free MSC complete medium and cultured again for 24 hours. Then, the HHFDPC was treated with the peptide of SEQ ID NO: 1 prepared in the Preparation Example at concentrations of 500 nM, […], and 50 μM, respectively, and cultured at 37° C. for 24 hours. As a positive control, minoxidil was treated at a concentration of 1 μM, and as a negative control, HHFDPC without any treatment was used. After washing with PBS, proteins in the nucleus were isolated using a nuclear protein extraction kit (Thermo scientific, USA). After electrophoresis using a 10% SDS-PAGE gel, it was transferred to a PVDF membrane and blocked using 5% skim milk at room temperature for 30 minutes. […] After washing again with 0.1% PBS-T (0.1% Tween-20 in PBS) three times for 15 minutes each, β-catenin was detected by treatment with ECL solution (GE Healthcare, USA).

LEF-1 = assay: RT-PCR of LEF-1 expression in HHFDPC; type: cell-based, human; details: peptide 500 nM, 5 μM, and 50 µM, 24 hours, vs control group without any treatment, FIG. 4
Procedure: (§2) Furthermore, in order to determine whether the β-catenin moves to the nucleus and is activated to affect proliferation and differentiation, whether the expression of LEF-1, c-Myc and cyclin D1 (cyclin D1), which act as downstream factors, increases with β-catenin activation was confirmed through RT-PCR. Specifically, in the same manner as the previous Western blotting experiment, HHFDPC cells were cultured, treated with the peptides prepared in the Preparation Example of the present invention at concentrations of 500 nM, 5 μM, and 50 µM, respectively, and cultured at 37° C. for 24 hours. After washing the cells with PBS, RNA was isolated by treating them with 300 […] of easy blue (intron, Korea). Then, CDNA was synthesized using a cDNA synthesis kit (enzynomics, Korea) by quantifying it with nano drop, and PCR was performed using primers for LEF-1, c-Myc and cyclin D1 (sequences of the primers are listed in Table 2 below) and PCR premix (enzynomics, Korea). Electrophoresis was performed on a 1.5% agarose gel, and then the mRNA of LEF-1, c-Myc and cyclin D1 was detected using a band analysis system (Bio-Rad gel image system).

c-Myc = assay: RT-PCR of c-Myc expression in HHFDPC; type: cell-based, human; details: peptide 500 nM, 5 μM, and 50 µM, 24 hours, vs control group without any treatment, FIG. 4
Procedure: as §2

cyclin D1 = assay: RT-PCR of cyclin D1 expression in HHFDPC; type: cell-based, human; details: peptide 500 nM, 5 μM, and 50 µM, 24 hours, vs control group without any treatment, FIG. 4
Procedure: as §2

DKK-1 protein = assay: Western blotting of DKK-1 protein in DHT-treated HHFDPC; type: cell-based, human; details: HHFDPC with DHT 100 nM, peptide 500 nM, 5 μM, and 50 μM, 24 hours, vs negative control (DHT only), FIG. 5
Procedure: DKK-1 protein (dickkopf-related protein 1) is a hair loss-related protein known to be highly expressed in individuals with hair loss, especially male pattern hair loss, and its expression is known to be promoted by hormones such as DHT (Dihydrotestosterone). Accordingly, the expression of DKK-1 protein was induced by treating HHFDPC cells with DHT together with the peptide according to the Preparation Example of the present invention, and then the expression level of DKK-1 was measured through Western blotting to determine whether there was an effect of suppressing the expression of DKK-1 protein.
Specifically, as in [Experiment Example 1-1] above, HHFDPC was seeded in a 6-well culture plate at 4×10^5 cells/well and then cultured in MSC complete medium (mesenchymal stem cell complete media) for 24 hours. Next, the medium was replaced with serum free MSC complete medium and cultured again for 24 hours. […] After washing again with 0.1% PBS-T (0.1% Tween-20 in PBS) three times for 15 minutes each, DKK-1 protein was detected by treatment with ECL solution (GE Healthcare, USA).

Keratin 14 = assay: RT-PCR of Keratin 14 expression in HHORSC; type: cell-based, human; details: peptide 500 nM, 5 μM, and 50 μM, 72 hours, vs control group without treatment, FIG. 6
Procedure: (§3) Specifically, HHORSC (human hair outer root sheath cell, Sciencell, USA) was seeded in a 6-well culture plate at 4×10^5 cells/well and then cultured in MSC complete medium (mesenchymal stem cell complete media) for 24 hours. Next, the medium was replaced with serum free MSC complete medium and cultured again for 24 hours. Then, the HHORSC was treated with the peptide of Preparation Example consisting of amino acid sequence of SEQ ID NO: 1 at concentrations of 500 nM, 5 μM, and 50 μM, respectively, and cultured at 37° C. for 72 hours. As a positive control, EGF was treated at a concentration of 50 nM, and as a negative control, HHORSC without any treatment was used. After washing with PBS, RNA was isolated by treating with 300 ? of easy blue (intron, Korea). Then, CDNA was synthesized using a cDNA synthesis kit (enzynomics, Korea) by quantification using nano drop, and PCR was performed using primers for Keratin 14 and Keratin 19 (base sequences of each primer are listed in Table 3 below) and PCR premix (enzynomics, Korea). Electrophoresis was performed on a 1.5% agarose gel, and the mRNAs of Keratin 14 and Keratin 19 were detected using a band analysis system (Bio-Rad gel image system).

Keratin 19 = assay: RT-PCR of Keratin 19 expression in HHORSC; type: cell-based, human; details: peptide 500 nM, 5 μM, and 50 μM, 72 hours, vs control group without treatment, FIG. 6
Procedure: as §3

MSX2 = assay: RT-PCR of MSX2 expression in HHGMC; type: cell-based, human; details: peptide 500 nM, 5 μM, and 50 μM, 72 hours, vs untreated control group, FIG. 7
Procedure: Specifically, HHGMC (human hair germinal matrix cell, Sciencell, USA) was seeded in a 6-well culture plate at 4×10^5 cells/well and then cultured in MSC complete medium (mesenchymal stem cell complete media) for 24 hours. Next, the medium was replaced with serum free MSC complete medium and cultured again for 24 hours. Then, the HHGMC was treated with the peptide of SEQ ID NO: 1 prepared in the Preparation Example at concentrations of 500 nM, 5 μM, and 50 μM, respectively, and cultured at 37° C. for 72 hours. As a positive control, EGF was treated at a concentration of 50 nM, and as a negative control, HHGMC without any treatment was used. After washing with PBS, RNA was isolated by treating with 300 ? of easy blue (intron, Korea). Next, cDNA was synthesized using a cDNA synthesis kit (enzynomics, Korea) by quantification using nano drop, and PCR was performed using primers for MSX2 (base sequences of the primers are listed in Table 4 below) and PCR premix (enzynomics, Korea). Electrophoresis was performed on a 1.5% agarose gel, and MSX2 mRNA was detected using a band analysis system (Bio-Rad gel image system).

Sequence: KLQEHLDM [peptide of the present invention]
- proliferation of HHFDPC (absorbance, MTT) [1]: proliferation of HHFDPC was promoted depending on the concentration of the treated peptide
- phosphorylation of AKT (p-AKT) (p-AKT): phosphorylation was found to be increased compared to the control group
- phosphorylation of ERK (p-ERK) (p-ERK): phosphorylation was found to be increased compared to the control group
- β-catenin moved to the nucleus (activation of β-catenin) (β-catenin): migration due to activation of β-catenin increased
- amount of LEF-1 mRNA (LEF-1): the amount of mRNA increased further compared to the control group
- amount of c-Myc mRNA (c-Myc): the amount of mRNA increased further compared to the control group
- amount of cyclin D1 mRNA (cyclin D1): the amount of mRNA increased further compared to the control group
- amount of DKK-1 protein (DKK-1 protein): the amount of DKK-1 protein was found to be reduced
- amount of Keratin 14 mRNA (Keratin 14): the amount of mRNA increased further compared to the control group
- amount of Keratin 19 mRNA (Keratin 19): the amount of mRNA increased further compared to the control group
- amount of MSX2 mRNA (MSX2): the amount of mRNA increased further compared to the untreated control group

From US20250281378A1, “PEPTIDE HAVING ACTIVITY OF PREVENTING HAIR LOSS OR PROMOTING HAIR GROWTH AND USE THEREOF” (CAREGEN CO., LTD., priority 2021, published 2025)
